From publication PMC12455397 (Angewandte Chemie (International Ed. in English), 2025)
Where a name gives a salt, the structure may show the parent alone. Read-outs that look alike come from different tables or passages of the source.

How the values were obtained:
[1] = system: Nrf2 KO THP1 cells differentiated into macrophages; experiment: RNA sequencing transcriptome analysis, Nrf2 KO THP-1 macrophages; type: cell-based; conditions: 12 h, CDDO-Me 0.1 µM, DMF, 24, 28 10 µM, KI-696 1 µM
[2] = system: differentiated THP1 macrophages (WT); conditions: for number of upregulated genes not shared by the other groups: DMF 10 µM
THP1 cells = type: cell-based; conditions: THP-1 WT, 100 µM, 48 h; stated as contrast to 24/28, which did not reduce viability
Description: THP1 cells were exposed to the compounds for 48 hours at 10 and 100 μM. Viability was quantified using
propidium iodide exclusion through flow cytometry. PI-positive cells (dead or necrotic cells) were quantified
through red fluorescence on a BD C6 Accuri flow cytometer using a 488 nm excitation wavelength and an
emission filter of 585 nm ± 40 nm (BD Biosciences). 50,000 events were collected (n = 3 technical replicates
per condition). The experiment was repeated twice. Data are presented as mean ± SEM (n = 4‒10).

Keap1 Kelch domain = Keap1 Kelch domain (Homo sapiens, UniProt Q14145); experiment: Surface plasmon resonance (SPR), immobilized Keap1 Kelch
Description: Surface Plasmon Resonance
SPR measurements were performed at 25 °C using a Pioneer FE FE instrument (Sartorius), as described
previosuly.[1, 3-4] The Keap1 Kelch domain was covalently immobilized on the biosensor chip surface by
amine coupling to a level of 2150 RU, using a 10 mM NaOAc pH 5 immobilization buffer. The 1×HBSTET
buffer (10 mM Hepes, 150 mM NaCl, 0.005% Tween20, 3 mM EDTA, 1 mM TCEP, pH = 7.4)
supplemented with 4% DMSO was used as running buffer for the experiments. Microcalibration was
performed for all SPR experiments to adjust for DMSO bulk effects (low limit of 3% and a high limit of
5%). The compound was injected in a concentration series of twofold serial dilutions (67.5–1000 µM)
using standard injections at a 30 μL/min flow rate. The data were analyzed using Qdat Data Analysis
Tool version 2.6.3.0 (Sartorius). The sensorgrams were corrected for buffer effects and unspecific
binding to the chip matrix by subtraction of blank and reference surfaces (a blank flow cell channel
activated by the injection of EDC/NHS and inactivated by the injection of ethanolamine). The
dissociation constant (Kd) was estimated by plotting MW normalized response levels (RUnorm) at equilibrium (Req) against the injected concentration and curve-fitted to a Langmuir (1:1) binding

human Keap1 Kelch = human Keap1 Kelch (Homo sapiens, UniProt Q14145); experiment: Fluorescence polarization (FP) competition assay with Cy5-Nrf2 peptide probe
Description: Fluorescence Polarization Assay
(3 nM) and human Keap1 Kelch at 14 nM in the 1×HBSTET assay buffer, as previously.[1, 3-5] In short, the assay was performed in black flat-bottom 384-well plates (Corning Life Sciences, NY) allowing an assay volume of 30 μL/well. Proper mixing and elimination of air bubbles was ascertained by spinning down the plates and incubation for 10–15 minutes at RT before measuring FP levels on a Safire2 plate-reader (Tecan, Männedorf, Switzerland). The Ki values of the compounds were determined by dose-response experiments (12-points, 4% DMSO in all wells), where FP values were fitted to the equation Y = Bottom + (Top - Bottom)/[1 + (10HillSlope*(LogIC50-X))]; X representing the logarithmic value of compound concentration. The resulting IC50 value, together with the Kd value (the dissociation constant between probe and Keap1 Kelch, determined in a prior experiment) and Keap1 Kelch concentrations, was used to calculate the theoretical competitive inhibition constant, the Ki value.[18]

[3] = WT, 12 h, CDDO-Me 0.1 µM, SFN, DMF, 24, 28 10 µM, KI-696 1 µM
[4] = WT, 12 h, CDDO-Me 0.1 µM, SFN, DMF, 24, 28 10 µM, KI-696 1 µM, NS = not significant

Chain of Keap1 Kelch domain (Q14145 321-609 limits assumed): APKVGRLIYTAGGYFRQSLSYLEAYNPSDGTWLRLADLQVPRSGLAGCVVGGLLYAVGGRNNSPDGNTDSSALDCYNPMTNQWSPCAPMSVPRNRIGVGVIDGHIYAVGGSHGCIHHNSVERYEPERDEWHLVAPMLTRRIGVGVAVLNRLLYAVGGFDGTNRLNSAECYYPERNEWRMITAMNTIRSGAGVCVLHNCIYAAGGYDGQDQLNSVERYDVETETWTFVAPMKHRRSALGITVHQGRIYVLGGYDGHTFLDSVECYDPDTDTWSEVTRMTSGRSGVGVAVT
Chain of human Keap1 Kelch (Q14145 321-609): as the sequence (Q14145 321-609 limits assumed) above

| Compound | AKR1B10 FC ([2]; Table S3, THP-1, 12 h) | CASP1 FC ([2]; Table S3, THP-1, 12 h) | COL1A1 FC ([2]; Table S3, THP-1, 12 h) | COL4A1 FC ([2]; Table S3, THP-1, 12 h) | COL4A2 FC ([2]; Table S3, THP-1, 12 h) | GPX1 FC ([2]; Table S3, THP-1, 12 h) | GPX4 FC ([2]; Table S3, THP-1, 12 h) | IFNAR1 FC ([2]; Table S3, THP-1, 12 h) | IFNAR2 FC ([2]; Table S3, THP-1, 12 h) | IFNGR1 FC ([2]; Table S3, THP-1, 12 h) | IFNGR2 FC ([2]; Table S3, THP-1, 12 h) | IL1B FC ([2]; Table S3, THP-1, 12 h) | IRF3 FC ([2]; Table S3, THP-1, 12 h) | LAMB1 FC ([2]; Table S3, THP-1, 12 h) | LAMB4 FC ([2]; Table S3, THP-1, 12 h) | MMP8 FC ([2]; Table S3, THP-1, 12 h) | MMP9 FC ([2]; Table S3, THP-1, 12 h) | MMP12 FC ([2]; Table S3, THP-1, 12 h) | NLRP3 FC ([2]; Table S3, THP-1, 12 h) | NOD2 FC ([2]; Table S3, THP-1, 12 h) | other results |
| --- | --- | --- | --- | --- | --- | --- | --- | --- | --- | --- | --- | --- | --- | --- | --- | --- | --- | --- | --- | --- | --- |
| COc1cc([C@@H](CC(=O)O)c2ccc(C)c(CN3C[C@@H](C)Oc4ccccc4S3(=O)=O)c2)cc2nnn(C)c12 [KI-696] | 26,39 fold | 0,94 fold | 1,59 fold | 0,61 fold | 0,77 fold | 1,38 fold | 1,74 fold | 0,90 fold | 1,02 fold | 0,70 fold | 0,91 fold | 0,85 fold | 1,43 fold | 2,64 fold | 3,38 fold | 0,82 fold | 1,21 fold | 0,60 fold | 0,78 fold | 0,57 fold | number of up- or downregulated genes in Nrf2 KO cells [1]: none; CYP1B1 FC ([2]; Table S3, THP-1, 12 h): 0,76 fold; NOXA1 FC ([2]; Table S3, THP-1, 12 h): 0,92 fold; SOCS1 FC ([2]; Table S3, THP-1, 12 h): 2,43 fold; SOCS3 FC ([2]; Table S3, THP-1, 12 h): 1,66 fold; SOD1 FC ([2]; Table S3, THP-1, 12 h): 1,75 fold; SOD2 FC ([2]; Table S3, THP-1, 12 h): 0,87 fold; STAT1 FC ([2]; Table S3, THP-1, 12 h): 0,69 fold; TBK1 FC ([2]; Table S3, THP-1, 12 h): 1,56 fold; TLR4 FC ([2]; Table S3, THP-1, 12 h): 0,32 fold; TNFRSF1B FC ([2]; Table S3, THP-1, 12 h): 1,13 fold; TRAP1 FC ([2]; Table S3, THP-1, 12 h): 1,02 fold; cGAS FC ([2]; Table S3, THP-1, 12 h): 1,08 fold; Average FC of upregulated Nrf2-dependent genes [2, 3]: 2.4 fold; number of upregulated genes (FC >2.0, p-adj <0.05) [2, 3]: 88 genes; GCLM fold change vs vehicle [2, 4]: 2.5 fold; GSR fold change vs vehicle [2, 4]: 2.4 fold; HMOX1 fold change vs vehicle [2, 4]: 2.6 fold; NQO1 fold change vs vehicle [2, 4]: 2.3 fold; TXNRD1 fold change vs vehicle [2, 4]: 2.3 fold |
| COC(=O)/C=C/C(=O)OC [DMF, dimethyl fumarate] | 1,00 fold | 0,18 fold | 0,44 fold | 1,46 fold | 1,16 fold | 0,59 fold | 1,09 fold | 0,95 fold | 0,80 fold | 0,93 fold | 0,78 fold | 2,70 fold | 1,15 fold | 4,44 fold | 7,56 fold | 1,70 fold | 0,85 fold | 1,88 fold | 1,19 fold | 0,31 fold | number of up- or downregulated genes in Nrf2 KO cells [1]: 3709 genes; NOXA1 FC ([2]; Table S3, THP-1, 12 h): 0,30 fold; SOCS1 FC ([2]; Table S3, THP-1, 12 h): 5,21 fold; SOCS3 FC ([2]; Table S3, THP-1, 12 h): 18,01 fold; SOD1 FC ([2]; Table S3, THP-1, 12 h): 1,73 fold; SOD2 FC ([2]; Table S3, THP-1, 12 h): 0,19 fold; STAT1 FC ([2]; Table S3, THP-1, 12 h): 0,62 fold; TBK1 FC ([2]; Table S3, THP-1, 12 h): 1,19 fold; TLR4 FC ([2]; Table S3, THP-1, 12 h): 0,84 fold; TNFRSF1B FC ([2]; Table S3, THP-1, 12 h): 1,26 fold; TRAP1 FC ([2]; Table S3, THP-1, 12 h): 0,85 fold; cGAS FC ([2]; Table S3, THP-1, 12 h): 1,04 fold; number of upregulated genes not shared by the other groups ([2]; WT, 12 h, CDDO-Me 0.1 µM): > 500 genes; Average FC of upregulated Nrf2-dependent genes [2, 3]: 4.2 fold; number of upregulated genes (FC >2.0, p-adj <0.05) [2, 3]: 845 genes; cell viability (THP1 cells): contrasted |
| C[S+]([O-])CCCCN=C=S (stereo not shown) [SFN, sulforaphane] | 34,78 fold | 0,45 fold | 0,98 fold | 0,55 fold | 1,38 fold | 0,53 fold | 0,94 fold | 0,88 fold | 0,85 fold | 0,63 fold | 0,58 fold | 0,36 fold | 1,48 fold | 7,81 fold | 17,37 fold | 0,32 fold | 0,70 fold | 0,29 fold | 0,44 fold | 0,16 fold | CYP1B1 FC [2]: 1,15 fold; NOXA1 FC ([2]; Table S3, THP-1, 12 h): 0,45 fold; SOCS1 FC ([2]; Table S3, THP-1, 12 h): 2,19 fold; SOCS3 FC ([2]; Table S3, THP-1, 12 h): 0,99 fold; SOD1 FC ([2]; Table S3, THP-1, 12 h): 2,16 fold; SOD2 FC ([2]; Table S3, THP-1, 12 h): 0,40 fold; STAT1 FC ([2]; Table S3, THP-1, 12 h): 0,66 fold; TBK1 FC ([2]; Table S3, THP-1, 12 h): 0,95 fold; TLR4 FC ([2]; Table S3, THP-1, 12 h): 0,43 fold; TNFRSF1B FC ([2]; Table S3, THP-1, 12 h): 1,19 fold; TRAP1 FC ([2]; Table S3, THP-1, 12 h): 0,74 fold; cGAS FC ([2]; Table S3, THP-1, 12 h): 1,42 fold; Average FC of upregulated Nrf2-dependent genes [2, 3]: 4.1 fold; number of upregulated genes (FC >2.0, p-adj <0.05) [2, 3]: 676 genes; GCLM fold change vs vehicle [2, 4]: 4.7 fold; GSR fold change vs vehicle [2, 4]: 3.4 fold; SRXN1 fold change vs vehicle [2, 4]: 4.5 fold; TXNRD1 fold change vs vehicle [2, 4]: 3.9 fold; cell viability (THP1 cells): contrasted |
| O=C(COc1ccccc1)NC1CCCCC1 [Compound 1] | – | – | – | – | – | – | – | – | – | – | – | – | – | – | – | – | – | – | – | – | Kd (Keap1 Kelch domain; KD (SPR, printed in Figure 1b), Rmax fixed to theoretical maximum (15 RU)): 686 ± 7 µM; Kd (Keap1 Kelch domain; Kd (SPR), estimated with Rmax fixed to theoretical maximum): ~700 µM; ligand efficiency (LE) (Keap1 Kelch domain; from SPR Kd): 0.25; activity in FP competition assay (human Keap1 Kelch): inactive |
| COC(=O)[C@]12CCC(C)(C)C[C@H]1[C@H]1C(=O)C=C3[C@@]4(C)C=C(C#N)C(=O)C(C)(C)[C@@H]4CC[C@@]3(C)[C@]1(C)CC2 [CDDO-Me, bardoxolone methyl] | 61,69 fold | 1,31 fold | 3,46 fold | 0,30 fold | 0,49 fold | 0,44 fold | 0,91 fold | 0,82 fold | 0,52 fold | 0,81 fold | 0,41 fold | 0,13 fold | 0,95 fold | 3,83 fold | 5,61 fold | 0,21 fold | 0,51 fold | 0,25 fold | 0,43 fold | 0,78 fold | number of up- or downregulated genes in Nrf2 KO cells [1]: 2149 genes; NOXA1 FC ([2]; Table S3, THP-1, 12 h): 0,67 fold; SOCS1 FC ([2]; Table S3, THP-1, 12 h): 0,37 fold; SOCS3 FC ([2]; Table S3, THP-1, 12 h): 1,14 fold; SOD1 FC ([2]; Table S3, THP-1, 12 h): 2,71 fold; SOD2 FC ([2]; Table S3, THP-1, 12 h): 0,36 fold; STAT1 FC ([2]; Table S3, THP-1, 12 h): 1,02 fold; TBK1 FC ([2]; Table S3, THP-1, 12 h): 1,06 fold; TLR4 FC ([2]; Table S3, THP-1, 12 h): 0,26 fold; TNFRSF1B FC ([2]; Table S3, THP-1, 12 h): 0,27 fold; TRAP1 FC ([2]; Table S3, THP-1, 12 h): 0,64 fold; cGAS FC ([2]; Table S3, THP-1, 12 h): 1,19 fold; number of upregulated genes not shared by the other groups ([2]; WT, 12 h, CDDO-Me 0.1 µM): > 500 genes; Average FC of upregulated Nrf2-dependent genes [2, 3]: 5.0 fold; number of upregulated genes (FC >2.0, p-adj <0.05) [2, 3]: 1091 genes |
